Laboratory results reported in patent US20250230165A1, “HETEROCYCLIC COMPOUNDS FOR USE IN THE TREATMENT OF CANCER” (ARTIOS PHARMA LIMITED, priority 2021, published 2025).

Each compound was assayed against T1, Human Polθ polymerase domain (aa1820-2590) (Homo sapiens, UniProt O75417) (assay: Polθ Polymerase Domain Kinact/KI Assay (PicoGreen)). Conditions: 0.8 nM Polθ, 100 nM DNA substrate, kobs vs [I] fit for 2-step covalent inhibitor.
T1 construct: Human Polθ polymerase domain (aa1820-2590) was expressed in E. coli; made in house; host or cells: E. coli
T1 sequence (O75417 1820-2590): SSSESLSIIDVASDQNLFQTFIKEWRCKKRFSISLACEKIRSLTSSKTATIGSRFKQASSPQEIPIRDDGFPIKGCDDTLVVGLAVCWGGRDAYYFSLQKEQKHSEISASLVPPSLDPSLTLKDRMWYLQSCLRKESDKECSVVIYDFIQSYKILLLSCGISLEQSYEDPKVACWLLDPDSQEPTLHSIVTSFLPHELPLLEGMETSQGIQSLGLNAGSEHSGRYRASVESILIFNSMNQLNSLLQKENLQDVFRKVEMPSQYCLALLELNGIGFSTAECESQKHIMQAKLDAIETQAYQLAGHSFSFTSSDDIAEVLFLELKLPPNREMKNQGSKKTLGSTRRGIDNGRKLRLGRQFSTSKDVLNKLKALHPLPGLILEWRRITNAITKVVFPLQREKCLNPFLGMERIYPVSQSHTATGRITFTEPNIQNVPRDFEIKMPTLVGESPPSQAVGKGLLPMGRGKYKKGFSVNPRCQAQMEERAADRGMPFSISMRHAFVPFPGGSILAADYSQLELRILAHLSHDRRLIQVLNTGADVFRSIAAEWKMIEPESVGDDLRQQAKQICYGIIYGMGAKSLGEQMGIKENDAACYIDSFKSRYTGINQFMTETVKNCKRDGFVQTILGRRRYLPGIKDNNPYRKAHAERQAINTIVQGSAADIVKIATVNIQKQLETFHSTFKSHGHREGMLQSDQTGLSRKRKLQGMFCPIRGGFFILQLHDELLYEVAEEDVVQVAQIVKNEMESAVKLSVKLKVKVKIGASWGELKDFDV
Type: biochemical
Summary of the method: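 Covalent Kinact/KI by PicoGreen DNA synthesis readout: E. coli-expressed Polθ polymerase domain (0.8 nM), 100 nM annealed DNA substrate, […], Tris pH 7.5 buffer with DTT, 1% DMSO; EDTA-stopped over 0–60 min time course. kobs from progress curves, then kobs vs [I] fit to two-step covalent model.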
`C=CC(=O)N1CC(n2cnc(CN3C[C@H]4CC(=O)N(c5cc(C(F)(F)F)cc(C)n5)[C@@H]4C(=O)N(C)c4cccc(F)c43)n2)C1` [Example 123, (3aR,11aS)-5-((1-(1-acryloylazetidin-3-yl)-1H-1,2,4-triazol-3-yl)methyl)-6-fluoro-10-methyl-1-(6-methyl-4-(trifluoromethyl)pyridin-2-yl)-1,3a,4,5,10,11a-hexahydro-2H-benzo[b]pyrrolo[2,3-f][1,4]diazocine-2,11(3H)-dione] was tested, and the Kinact/Kl was 0.27 µM⁻¹ s⁻¹.
`C=CC(=O)N1CCN(c2nc(CN3C[C@H]4CC(=O)N(c5cc(C(F)(F)F)cc(C)n5)[C@@H]4C(=O)N(C)c4cccc(F)c43)co2)CC1` [Example 124, (3aR,11aS)-5-((2-(4-acryloylpiperazin-1-yl)oxazol-4-yl)methyl)-6-fluoro-10-methyl-1-(6-methyl-4-(trifluoromethyl)pyridin-2-yl)-1,3a,4,5,10,11a-hexahydro-2H-benzo[b]pyrrolo[2,3-f][1,4]diazocine-2,11(3H)-dione] gave a Kinact/Kl of 0.011 µM⁻¹ s⁻¹.
For `C=CC(=O)N1CCN(c2nc(CN3C[C@H]4CC(=O)N(c5cc(C(F)(F)F)cc(C)n5)[C@@H]4C(=O)N(C)c4cccc(F)c43)c[nH]2)CC1` [Example 125, (3aR,11aS)-5-((2-(4-acryloylpiperazin-1-yl)-1H-imidazol-4-yl)methyl)-6-fluoro-10-methyl-1-(6-methyl-4-(trifluoromethyl)pyridin-2-yl)-1,3a,4,5,10,11a-hexahydro-2H-benzo[b]pyrrolo[2,3-f][1,4]diazocine-2,11(3H)-dione], the Kinact/Kl was 2.53 µM⁻¹ s⁻¹.
`C=CC(=O)N1CCC(n2cnc(CN3C[C@H]4CC(=O)N(c5cc(C(F)(F)F)cc(C)n5)[C@@H]4C(=O)N(C)c4cccc(F)c43)n2)CC1` [Example 126, (3aR,11aS)-5-((1-(1-acryloylpiperidin-4-yl)-1H-1,2,4-triazol-3-yl)methyl)-6-fluoro-10-methyl-1-(6-methyl-4-(trifluoromethyl)pyridin-2-yl)-1,3a,4,5,10,11a-hexahydro-2H-benzo[b]pyrrolo[2,3-f][1,4]diazocine-2,11(3H)-dione] gave a Kinact/Kl of 0.46 µM⁻¹ s⁻¹.
Work on `C=CC(=O)N1CC(c2cccc(CN3C[C@H]4CC(=O)N(c5cc(C(F)(F)F)cc(C)n5)[C@@H]4C(=O)N(C)c4cccc(F)c43)c2)C1` [Example 127, (3aR,11aS)-5-(3-(1-acryloylazetidin-3-yl)benzyl)-6-fluoro-10-methyl-1-(6-methyl-4-(trifluoromethyl)pyridin-2-yl)-1,3a,4,5,10,11a-hexahydro-2H-benzo[b]pyrrolo[2,3-f][1,4]diazocine-2,11(3H)-dione] yielded a Kinact/Kl of 0.65 µM⁻¹ s⁻¹.
`C=CC(=O)N1CC(c2cccc(CN3C[C@H]4CC(=O)N(c5cc(C(F)(F)F)cc(C)n5)[C@@H]4C(=O)N(C)c4cccc(F)c43)n2)C1` [Example 128, (3aR,11aS)-5-((6-(1-acryloylazetidin-3-yl)pyridin-2-yl)methyl)-6-fluoro-10-methyl-1-(6-methyl-4-(trifluoromethyl)pyridin-2-yl)-1,3a,4,5,10,11a-hexahydro-2H-benzo[b]pyrrolo[2,3-f][1,4]diazocine-2,11(3H)-dione] gave a Kinact/Kl of 0.66 µM⁻¹ s⁻¹.
With `C=CC(=O)N1CC(c2nccc(CN3C[C@H]4CC(=O)N(c5cc(C(F)(F)F)cc(C)n5)[C@@H]4C(=O)N(C)c4cccc(F)c43)n2)C1` [Example 129, (3aR,11aS)-5-((2-(1-acryloylazetidin-3-yl)pyrimidin-4-yl)methyl)-6-fluoro-10-methyl-1-(6-methyl-4-(trifluoromethyl)pyridin-2-yl)-1,3a,4,5,10,11a-hexahydro-2H-benzo[b]pyrrolo[2,3-f][1,4]diazocine-2,11(3H)-dione] the Kinact/Kl was 0.40 µM⁻¹ s⁻¹.
In the case of `C=CC(=O)N1Cc2ccc(CN3C[C@H]4CC(=O)N(c5cc(C(F)(F)F)cc(C)n5)[C@@H]4C(=O)N(C)c4cccc(F)c43)cc2C1` [Example 130, (3aR,11aS)-5-((2-acryloylisoindolin-5-yl)methyl)-6-fluoro-10-methyl-1-(6-methyl-4-(trifluoromethyl)pyridin-2-yl)-1,3a,4,5,10,11a-hexahydro-2H-benzo[b]pyrrolo[2,3-f][1,4]diazocine-2,11(3H)-dione], the Kinact/Kl is reported as 0.71 µM⁻¹ s⁻¹.
For `C=CC(=O)N1CCc2cc(CN3C[C@H]4CC(=O)N(c5cc(C(F)(F)F)cc(C)n5)[C@@H]4C(=O)N(C)c4cccc(F)c43)ccc2C1` [Example 131, (3aR,11aS)-5-((2-acryloyl-1,2,3,4-tetrahydoisoquinolin-6-yl)methyl)-6-fluoro-10-methyl-1-(6-methyl-4-(trifluoromethyl)pyridin-2-yl)-1,3a,4,5,10,11a-hexahydro-2H-benzo[b]pyrrolo[2,3-f][1,4]diazocine-2,11(3H)-dione], the Kinact/Kl was 0.53 µM⁻¹ s⁻¹.
With `C=CC(=O)N1CCn2cc(CN3C[C@H]4CC(=O)N(c5cc(C(F)(F)F)cc(C)n5)[C@@H]4C(=O)N(C)c4cccc(F)c43)nc2C1` [Example 132, (3aR,11aS)-5-((7-acryloyl-5,6,7,8-tetrahydroimidazo[1,2-a]pyrazin-2-yl)methyl)-6-fluoro-10-methyl-1-(6-methyl-4-(trifluoromethyl)pyridin-2-yl)-1,3a,4,5,10,11a-hexahydro-2H-benzo[b]pyrrolo[2,3-f][1,4]diazocine-2,11(3H)-dione] the Kinact/Kl was 1.86 µM⁻¹ s⁻¹.
`C=CC(=O)N1CCn2nc(CN3C[C@H]4CC(=O)N(c5cc(C(F)(F)F)cc(C)n5)[C@@H]4C(=O)N(C)c4cccc(F)c43)nc2C1` [Example 133, (3aR,11aS)-5-((7-acryloyl-5,6,7,8-tetrahydro-[1,2,4]triazolo[1,5-a]pyrazin-2-yl)methyl)-6-fluoro-10-methyl-1-(6-methyl-4-(trifluoromethyl)pyridin-2-yl)-1,3a,4,5,10,11a-hexahydro-2H-benzo[b]pyrrolo[2,3-f][1,4]diazocine-2,11(3H)-dione] was tested, and the Kinact/Kl was 1.70 µM⁻¹ s⁻¹.
`C=CC(=O)N1CCn2c(nnc2CN2C[C@H]3CC(=O)N(c4cc(C(F)(F)F)cc(C)n4)[C@@H]3C(=O)N(C)c3cccc(F)c32)C1` [Example 134, (3aR,11aS)-5-((7-acryloyl-5,6,7,8-tetrahydro-[1,2,4]triazolo[4,3-a]pyrazin-3-yl)methyl)-6-fluoro-10-methyl-1-(6-methyl-4-(trifluoromethyl)pyridin-2-yl)-1,3a,4,5,10,11a-hexahydro-2H-benzo[b]pyrrolo[2,3-f][1,4]diazocine-2,11(3H)-dione] was tested, and the Kinact/Kl was 0.062 µM⁻¹ s⁻¹.
In the case of `C=CC(=O)N1CCC(n2cnc(CN3C[C@H]4CC(=O)N(c5cc(C(F)(F)F)cc(C)n5)[C@@H]4C(=O)N(C)c4cccc(Cl)c43)n2)CC1` [Example 135, (3aR,11aS)-5-((1-(1-acryloylpiperidin-4-yl)-1H-1,2,4-triazol-3-yl)methyl)-6-chloro-10-methyl-1-(6-methyl-4-(trifluoromethyl)pyridin-2-yl)-1,3a,4,5,10,11a-hexahydro-2H-benzo[b]pyrrolo[2,3-f][1,4]diazocine-2,11(3H)-dione], the Kinact/Kl is reported as 2.00 µM⁻¹ s⁻¹.
`C=CC(=O)N1CCn2cc(CN3C[C@H]4CC(=O)N(c5cc(C(F)(F)F)cc(C)n5)[C@@H]4C(=O)N(C)c4cccc(Cl)c43)nc2C1` [Example 136, (3aR,11aS)-5-((7-acryloyl-5,6,7,8-tetrahydroimidazo[1,2-a]pyrazin-2-yl)methyl)-6-chloro-10-methyl-1-(6-methyl-4-(trifluoromethyl)pyridin-2-yl)-1,3a,4,5,10,11a-hexahydro-2H-benzo[b]pyrrolo[2,1-f][1,4]diazocine-2,11(3H)-dione] was tested, and the Kinact/Kl was 6.47 µM⁻¹ s⁻¹.
For `C=CC(=O)N1CC(C)(N2CCC(CN3C[C@H]4CC(=O)N(c5cc(C(F)(F)F)cc(C)n5)[C@@H]4C(=O)N(C)c4cccc(Cl)c43)CC2)C1` [Example 137, (3aR,11aS)-5-((1-(1-acryloyl-3-methylazetidin-3-yl)piperidin-4-yl)methyl)-6-chloro-10-methyl-1-(6-methyl-4-(trifluoromethyl)pyridin-2-yl)-1,3a,4,5,10,11a-hexahydro-2H-benzo[b]pyrrolo[2,3-f][1,4]diazocine-2,11(3H)-dione], the Kinact/Kl was 0.98 µM⁻¹ s⁻¹.
In the case of `C=CC(=O)N1CC(N(C)CCCN2C[C@H]3CC(=O)N(c4cc(C(F)(F)F)cc(C)n4)[C@@H]3C(=O)N(C)c3cccc(Cl)c32)C1` [Example 138, (3aR,11aS)-5-(3-((1-acryloylazetidin-3-yl)(methyl)amino)propyl)-6-chloro-10-methyl-1-(6-methyl-4-(trifluoromethyl)pyridin-2-yl)-1,3a,4,5,10,11a-hexahydro-2H-benzo[b]pyrrolo[2,3-f][1,4]diazocine-2,11(3H)-dione], the Kinact/Kl is reported as 1.08 µM⁻¹ s⁻¹.
